Measurements taken from patent US11466024B2, “Bicylic compound acting as an inhibitor” (CHIA TAI TIANQING PHARMACEUTICAL GROUP CO., LTD., priority 2017, dated 2022).

Target: hERG potassium channel (Homo sapiens, UniProt Q12809)
Experiment: in vitro
Settings: human
Protocol: CHO-hERG cells (from Shanghai Institute of Materia Medica, Chinese Academy of Sciences) were cultured in a 175 cm^2 culture flask. When the cell density reached 60% to 80%, the culture medium was removed, the cells were washed once with 7 mL of PBS, and then 3 mL of Detachin was added for cell detachment. After complete cell detachment, 7 mL of culture medium were added for neutralization, the mixture was then centrifuged, the supernatant was aspirated, and another 5 mL of culture medium was added for re-suspension, so as to ensure that the cell density was 2×10^6/mL to 5×10^6/mL.
The single-cell giga-seal and the formation of whole-cell mode were both completed automatically by a Q patch instrument. After a whole-cell recording mode was achieved, the cells were clamped at −80 mV, exposed to a front voltage of −50 mV for 50 ms prior to a depolarizing stimulus (5 s, +40 mV), and then repolarized to −50 mV for 5 s, followed by a recovery to −80 mV. This voltage stimulation was applied every 15 s and recorded for 2 minutes, and the extracellular fluid was then administered, followed by a record lasting for 5 minutes. Thereafter, the administration process was started. Starting from the lowest test concentration, the compounds were administered at each test concentration and the process lasted for 2.5 minutes. […] At least 3 cells (n≥3) were tested at each concentration.
20 mM stock solution of the compound was diluted with the extracellular fluid, and 5 μL of the 20 mM stock solution of the compound was taken, added to 2495 μL of the extracellular fluid, and diluted by 500 times to 40 μM. Thereafter, the resulting mixture was serially and successively diluted by 3 times in an extracellular fluid containing 0.2% DMSO, so as to obtain a final concentration to be tested.
The experimental data was analyzed by XLFit software.

Chain of hERG potassium channel (Q12809 whole entry): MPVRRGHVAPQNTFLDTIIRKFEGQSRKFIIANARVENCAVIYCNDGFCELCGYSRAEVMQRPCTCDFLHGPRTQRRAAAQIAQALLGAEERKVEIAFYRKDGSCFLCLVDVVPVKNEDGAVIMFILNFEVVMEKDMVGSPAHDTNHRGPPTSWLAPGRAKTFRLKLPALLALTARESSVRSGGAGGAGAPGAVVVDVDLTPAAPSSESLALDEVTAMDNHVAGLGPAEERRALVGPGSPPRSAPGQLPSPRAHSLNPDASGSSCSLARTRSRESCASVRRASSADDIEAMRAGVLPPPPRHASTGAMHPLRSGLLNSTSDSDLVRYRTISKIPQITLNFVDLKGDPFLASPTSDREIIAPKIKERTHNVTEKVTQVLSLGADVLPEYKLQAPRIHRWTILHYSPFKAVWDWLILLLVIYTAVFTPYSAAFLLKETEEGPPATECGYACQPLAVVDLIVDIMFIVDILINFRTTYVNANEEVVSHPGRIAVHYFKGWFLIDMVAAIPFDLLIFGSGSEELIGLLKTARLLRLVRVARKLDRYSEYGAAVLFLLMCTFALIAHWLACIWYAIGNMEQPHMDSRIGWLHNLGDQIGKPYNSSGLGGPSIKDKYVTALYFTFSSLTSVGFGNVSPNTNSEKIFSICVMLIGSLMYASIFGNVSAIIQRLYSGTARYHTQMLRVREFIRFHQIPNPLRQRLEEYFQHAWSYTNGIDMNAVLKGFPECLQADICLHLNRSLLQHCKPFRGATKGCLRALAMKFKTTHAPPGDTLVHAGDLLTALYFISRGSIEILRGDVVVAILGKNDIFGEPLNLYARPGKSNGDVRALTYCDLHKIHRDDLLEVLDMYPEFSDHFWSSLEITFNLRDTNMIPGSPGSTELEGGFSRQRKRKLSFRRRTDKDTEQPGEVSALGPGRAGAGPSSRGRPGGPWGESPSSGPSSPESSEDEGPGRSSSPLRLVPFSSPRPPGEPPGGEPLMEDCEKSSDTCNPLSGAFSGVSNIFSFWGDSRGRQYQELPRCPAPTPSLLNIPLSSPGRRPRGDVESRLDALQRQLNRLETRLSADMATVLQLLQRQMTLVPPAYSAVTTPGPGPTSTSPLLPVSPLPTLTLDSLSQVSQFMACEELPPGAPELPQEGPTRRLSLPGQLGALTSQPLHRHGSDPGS

SMILES: COc1cc(N)c(Cl)cc1C(=O)NC1CCN(CCCOc2ccc(F)cc2)CC1OC (stereo not shown) [Cisapride, reference compound]
- inhibition at 2.5 min, 40 μM: 89.6%
